Paper PMC6154605, “Multi-Anti-Parasitic Activity of Arylidene Ketones and Thiazolidene Hydrazines against Trypanosoma cruzi and Leishmania spp” (Molecules : A Journal of Synthetic Chemistry and Natural …, 2017)
Read-outs that look alike come from different tables or passages of the source. Marks after values point to notes of the source that are not given here.

Columns and labels:
[1] = system: T. cruzi epimastigotes, Tulahuen 2 strain (genotype TcVI); test: In vitro anti-T. cruzi activity, growth inhibition of epimastigotes; assay type: cell-based, Trypanosoma cruzi; conditions: for IC50: Trypanosoma cruzi, TULAHUEN; for SI J774.1/ T. cruzi: ratio IC50 mammalian cell / IC50 parasite (epimastigotes); for Trypanocidal activity on T. cruzi in words: molecular stripping, epimastigotes
Experimental: For the in vitro anti-T. cruzi activity, we used epimastigotes of the Tulahuen 2 strain (genotype TcVI) grown in an axenic milieu (BHI-Tryptose). Cells from a 5–7-day-old culture were inoculated in fresh culture milieu to give an initial concentration of 1.00 × 10^6 cells/mL. The absorbance at 600 nm of the cells in culture was measured every day. At Day 5, the milieu was inoculated with different quantities of the compounds from a stock solution in DMSO (DMSO concentration in the culture milieu never exceeded 0.4%). The control was made in the presence of 0.4% DMSO and in the absence of compounds. Each concentration of compound was evaluated in duplicate. At Day 5, the absorbance of the culture was measured and related to the control. […] Each antiproliferative experiment was done in duplicate, and each concentration was tested in triplicate.

[2] = system: J774.1 murine macrophages; test: Nonspecific cytotoxicity on macrophages, MTT; assay type: cell-based; conditions: J774.1, 48 h, read-out: IC50 ± SD Murine Macrophages
Experimental: (§1) To establish the selectivity of the compounds against the parasites, nonspecific cytotoxicity against mammalian cells, using J774.1 murine macrophages and fibroblast NCTC929, was studied for the most relevant derivatives. The selectivity indexes were calculated as the ratio between cytotoxicity for mammalian cells and the anti-parasitic activity (Table 2).
J774.1 murine macrophage cells (ATCC, USA) were grown in DMEM culture milieu containing 4 mM L-glutamine and supplemented with 10% FCS. The cells were seeded in a 96-well plate (5.00 × 10^4 cells in 200 µL culture medium) and incubated at 37 °C in a 5% CO2 atmosphere for 48 h, to allow cell adhesion prior to drug testing. Afterwards, cells were exposed for 48 h to the compounds (25–400 μM) or the vehicle for control (0.4% DMSO), and additional controls (cells in medium) were used in each test. Cell viability was then assessed by measuring the mitochondria-dependent reduction of MTT (3-(4,5-dimethylthiazol-2-yl)-2,5-diphenyltetrazolium bromide) to formazan. For this purpose, MTT in sterile PBS (0.2% glucose), pH 7.4, was added to the macrophages to achieve a final concentration of 0.1 mg/mL, and the cells were incubated at 37 °C for 3 h. After removing the medium, formazan crystals were dissolved in 180 μL of DMSO and 20 μL of MTT buffer (0.1 M glycine, 0.1 M NaCl, 0.5 mM EDTA, pH 10.5), and the absorbance at 560 nm was measured. The IC50 was defined as the drug concentration at which 50% of the cells were viable, relative to the control (no drug added), and was determined by analysis using OriginLab8.5® sigmoidal regression (% of viable cells vs. the logarithm of the compound concentration). Tests were performed in triplicate.

[3] = system: zebrafish embryos; test: Zebrafish embryo toxicity test (LD50)
Experimental: […] Only embryos that were clearly undamaged after 60 min of observation were kept and subsequently used. Dechorionated embryos were further manipulated using flame-rounded tip glass Pasteur pipettes. […] In all cases, the embryos were incubated in system water with 1% DMSO (negative control) and the compound at different doses between 8 and 96 hpf. The treatment solution was changed daily. […] At selected time points, namely 24, 48, 72 and 96 hpf, embryotoxicity (= mortality) and morphological characteristics of the embryos were evaluated using a Nikon SMZ800 stereomicroscope. The embryos were evaluated for the presence and morphological development (as appropriate) of somites, tail detachment, eyes, heart beat and blood circulation. All individuals were evaluated at all time points.

[4] = system: L. braziliensis promastigotes; test: Leishmanicidal activity on promastigotes, resazurin; assay type: cell-based, Leishmania braziliensis; conditions: for IC50: 48 h, read-out: IC50 ± SD Promastigotes L. braziliensis; for SI NCTC/ L. braziliensis: ratio IC50 mammalian cell / IC50 parasite (promastigotes)
Description: (§2) We initially selected compounds previously reported to have anti-T. cruzi activity from our chemical library to evaluate their leishmanicidal activity. […]. To evaluate their activity in Leishmania spp., we performed a phenotypic screening using the promastigote form of L. infantum (MHOM/FR/91/LEM-2259) and L. braziliensis ([…]) (Table 1A for the thiazolidenehydrazine derivate and Table 1B for the arylideneketones family).
(§3) A culture of L. braziliensis (MHOM/BR/75/M2904) and L. infantum (MHOM/FR/91/LEM2259V) was obtained from the Facultad de Farmacia (Universidad Complutense, Madrid, Spain). The maintenance of the strains, the form of cultivation and the isolation of the shape of the promastigote were performed following the procedures described by Roldos et al.. The promastigotes were grown at 22 °C in Schneider’s Drosophila medium supplemented with 20% FBS. The assay was performed using a modification of a previous method. Promastigotes (2 × 10^6 parasites/well) were cultivated in 96-well plastic plates. Compounds were dissolved in dimethylsulfoxide (DMSO). Different dilutions of the compounds with a final volume up to 200 µL were added. After 48 h at 26 °C, 20 µL of a 2 mM resazurin solution were added, and the oxidation-reduction was quantified at 570 and 600 nm. The solution of resazurin was prepared at 2.5 mM in phosphate buffered solution (PBS), pH 7.4, and filtered through 0.22-µm membranes prior to use. All tests were carried out in triplicate. Resazurin sodium salt was obtained from Sigma-Aldrich (St. Louis, MO, USA) and stored at 4 °C protected from light. The efficacy of each compound was estimated by calculating the IC50 values. Each antiproliferative experiment was done in duplicate, and each concentration was tested in triplicate.

[5] = system: L. infantum promastigotes; test: as above; assay type: cell-based, Leishmania infantum; conditions: for IC50: 48 h, read-out: IC50 ± SD Promastigotes L. infantum; for SI NCTC/ L. infantum: ratio IC50 mammalian cell / IC50 parasite (promastigotes)
Description: as §2, §3

[6] = system: NCTC929 fibroblasts; test: Nonspecific cytotoxicity on fibroblasts, resazurin; assay type: cell-based; conditions: NCTC-929, 24 h; read-out: IC50 ± SD Fibroblast NCTC929
Experimental: as §1
NCTC-Clone 929 were grown in minimal essential medium (Sigma) supplemented with 10% heat-inactivated FBS, penicillin G (100 U/mL) and streptomycin (100 µg/mL). Cell cultures were maintained at 37 °C in a humidified 5% CO2 atmosphere. The procedure for cell viability measurement was evaluated with resazurin by a colorimetric method. The cells were plated in 96 microtiter plates at 3.00 × 10^4 cells/well in 100 µL growth medium. The cells were grown overnight at 37 °C, 5% CO2. Thereafter, the medium was removed, and the compounds were added to 200 µL of medium for 24 h. After incubation, 20 µL of a 2 mM resazurin solution were added to each well. The plates were incubated for 3 h to allow optimal oxidation-reduction. The reduction of resazurin was determined by dual wavelength absorbance measurement at 490 and 595 nm. The background was subtracted. Each concentration was assayed three times. Medium and drug controls were used in each test as blanks.

[7] = target: T1, LmTIM (triosephosphate isomerase from Leishmania mexicana) (Leishmania mexicana, UniProt P48499); test: Inhibition of triosephosphate isomerase; assay type: biochemical; conditions: for inhibition at 100 µM: read-out: Percentage of Inhibition LmTIM
T1 construct: made in house; host or cells: Escherichia coli
T1 sequence (P48499 whole entry): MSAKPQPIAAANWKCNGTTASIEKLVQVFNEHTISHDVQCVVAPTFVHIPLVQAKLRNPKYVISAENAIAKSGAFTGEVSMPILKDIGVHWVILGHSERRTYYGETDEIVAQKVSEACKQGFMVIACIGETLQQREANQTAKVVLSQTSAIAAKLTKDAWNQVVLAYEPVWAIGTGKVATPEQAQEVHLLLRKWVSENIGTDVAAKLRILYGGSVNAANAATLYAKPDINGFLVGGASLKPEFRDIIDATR
Experimental: Compounds were dissolved in DMSO. […] The experiments were performed in triplicate.

[8] = system: T. cruzi epimastigotes, Tulahuen 2 strain (genotype TcVI); conditions: cited from earlier work; for SI J774.1/ T. cruzi: ratio IC50 mammalian cell / IC50 parasite (epimastigotes); for IC50: read-out: IC50 ± SD Epimastigotes T. cruzi
[9] = system: J774.1 murine macrophages; conditions: J774.1; read-out: IC50 ± SD Murine Macrophages; cited from earlier work
[10] = target: cruzipain (Trypanosoma cruzi, UniProt P25779); conditions: at 100 µM; cited from earlier work
Sequence of cruzipain (P25779 123-467): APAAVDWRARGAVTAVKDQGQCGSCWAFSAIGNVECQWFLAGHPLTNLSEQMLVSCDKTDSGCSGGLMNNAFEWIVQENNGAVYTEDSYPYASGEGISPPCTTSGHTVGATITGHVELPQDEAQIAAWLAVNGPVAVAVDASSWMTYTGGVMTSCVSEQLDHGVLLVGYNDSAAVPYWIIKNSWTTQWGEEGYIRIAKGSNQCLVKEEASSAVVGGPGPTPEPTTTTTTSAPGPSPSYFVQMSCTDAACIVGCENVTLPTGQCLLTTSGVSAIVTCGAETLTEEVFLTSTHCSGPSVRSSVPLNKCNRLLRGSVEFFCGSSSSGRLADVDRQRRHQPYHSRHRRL

[11] = target: triosephosphate isomerase from T. cruzi (TcTIM) (Trypanosoma cruzi, UniProt P52270); design: made in house; host or cells: Escherichia coli; conditions: at 100 µM; cited from earlier work
Sequence of triosephosphate isomerase from T. cruzi (TcTIM) (P52270 whole entry): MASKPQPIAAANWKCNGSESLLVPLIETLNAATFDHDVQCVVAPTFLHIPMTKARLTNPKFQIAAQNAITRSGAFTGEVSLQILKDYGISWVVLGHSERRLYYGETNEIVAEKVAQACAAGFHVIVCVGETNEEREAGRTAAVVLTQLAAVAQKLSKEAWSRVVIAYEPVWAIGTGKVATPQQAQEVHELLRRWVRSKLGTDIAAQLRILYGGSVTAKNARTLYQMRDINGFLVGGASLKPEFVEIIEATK

[12] = Tulahuen 2 strain, read-out: IC50 ± SD Epimastigotes T. cruzi
[13] = Figure 4, molecular stripping of HIT1, read-out: Effect of structural change on trypanocidal activity (emoticon code)

Molecule | IC50 [1, 12] | melting point | SI J774.1/ T. cruzi [1] | IC50 ([2]; Mus musculus) | IC50 ([4]; Leishmania braziliensis) | SI NCTC/ L. braziliensis [4] | IC50 ([5]; Leishmania infantum) | SI NCTC/ L. infantum [5] | IC50 [6] | also measured
O=C(Cn1ccnc1[N+](=O)[O-])NCc1ccccc1 [Benznidazole, reference compound] | 7 ± 1 µM | – | 57 | 400 ± 4 µM | – | – | – | – | – | LD50 without chorion ([3]; dechorionated zebrafish embryos, 72 h incubation): > 1000 µM; LD50 with chorion ([3]; zebrafish embryos with chorion): > 1000 µM
O=C(/C=C/C=C/c1ccco1)/C=C/C=C/c1ccco1 [EA128] | – | – | – | – | 36 ± 9 µM | 14 | 31 ± 9 µM | 16 | 494 ± 25 µM | inhibition at 100 µM [7]: 0%; SI J774.1/ T. cruzi [8]: 12 ^c; IC50 [8]: 5 ± 0.7 µM; IC50 [9]: 60 ± 3 µM; Percentage of Inhibition Cruzipain [10]: 48/- ^d; Percentage of Inhibition TcTIM [11]: 100
O=C(/C=C/c1cccs1)/C=C/c1cccs1 [EA138] | – | – | – | – | 8 ± 2 µM | 20 | 4 ± 0.5 µM | 40 | 158 ± 5 µM | IC50 ([7]; read-out: IC50 ± SD LmTIM): < 25 µM; inhibition at 100 µM [7]: 100%; SI J774.1/ T. cruzi [8]: 8 ^c; IC50 [8]: 5 ± 0.8 µM; IC50 [9]: 38 ± 7 µM; Percentage of Inhibition Cruzipain [10]: 50/- ^d; Percentage of Inhibition TcTIM [11]: 0/- ^d
C=CCn1c(-c2ccc(Cl)cc2)cs\c1=N/N=C/C(C)=C/c1ccco1 [GAT0513] | 0.09 ± 0.02 µM | 228 °C (dec.) | 611 | 55 ± 5 µM | 33 ± 11 µM | 44 | 58 ± 12 µM | 25 | 1440 ± 30 µM | Trypanocidal activity on T. cruzi in words [1]: active against T. cruzi
C=CCn1c(C(=O)CN2CCN(CC=Cc3ccccc3)CC2)cs/c1=N/N=C\C=C\c1ccco1 [GATk6, 1-((Z)-3-allyl-2-((E)-((E)-3-(furan-2-yl)allylidene)hydrazono)-2,3-dihydrothiazol-4-yl)-2-(4-cinnamylpiperazin-1-yl)ethanone] | 1.2 ± 0.3 µM | 140 to 142 °C | – | – | > 25 µM | – | > 25 µM | – | – | IC50 [1, 13]: < 5 µM
Glucantime [reference compound] | – | – | – | – | – | 1 | – | 0.5 | – | IC50 [4]: 18 ± 2 µM; IC50 [5]: 26 ± 9 µM; IC50 [2]: 15 ± 1 µM

Further lines, with some results ahead:

IC50 [1, 12] | melting point | Molecule | SI J774.1/ T. cruzi [1] | IC50 ([2]; Mus musculus) | IC50 ([4]; Leishmania braziliensis) | SI NCTC/ L. braziliensis [4] | IC50 ([5]; Leishmania infantum) | SI NCTC/ L. infantum [5] | IC50 [6] | also measured
3 ± 0.5 µM | 220 °C (dec.) | C=CCn1c(-c2ccc(Cl)cc2)cs\c1=N/N=C/C=C/c1ccc(C)o1 [GAT0113A] | 22 | 66 ± 7 µM | 10 ± 1 µM | 32 | 8 ± 2 µM | 40 | 319 ± 16 µM | Trypanocidal activity on T. cruzi in words [1]: equipotent to the parent compound
> 25 µM | – | C(=Cc1ccccc1)CN1CCN(/N=C/C=C/c2ccco2)CC1 [GAT0913b, (E)-4-cinnamyl-N-((E)-3-(furan-2-yl)allylidene)piperazin-1-amine] | 1 | 25 ± 3 µM | 18 ± 5 µM | 9 | 21 ± 2 µM | 8 | 160 ± 7 µM | IC50 [1, 13]: > 25 µM; Trypanocidal activity on T. cruzi in words [1]: the activity was lost
1.6 ± 0.3 µM | 148 to 150 °C | Cc1ccc(/C=C/C=C/C(/C=C/C=C/c2ccc(C)o2)=NN2CCN(CC=Cc3ccccc3)CC2)o1 [GAT1113, N-((1E,3E,6E,8E)-1,9-bis(5-methylfuran-2-yl)nona-1,3,6,8-tetraen-5-ylidene)-4-cinnamylpiperazin-1-amine] | 28 | 45 ± 5 µM | 16 ± 4 µM | 10 | 14 ± 2 µM | 12 | 165 ± 5 µM | IC50 [1, 13]: < 5 µM
1.2 ± 0.3 µM | 212 °C (dec.) | Clc1ccc(-c2csc(N/N=C/C=C/c3ccco3)n2)cc1 [GAT2212B] | – | – | > 25 µM | – | 25 µM | – | – | –
8 ± 1 µM | – | CCCCCCCCCCCCCCCCOP(=O)([O-])OCC[N+](C)(C)C [Miltefosine, reference compound] | 6 | 50 ± 7 µM | 0.9 ± 0.2 µM | – | 0.9 ± 0.2 µM | 56 | – | –
